According to patent publication US12410143B2, “Therapeutic inhibitors of the reverse mode of ATP synthase” (priority 2017, dated 2025):
“Also recorded” adds a separate entry of the source. Where two headings read alike, the source gives them in different places.

Legend:
F1F0 ATP hydrolase = target: T1, F1F0 ATP hydrolase (Bos taurus, UniProt P00829+P19483); conditions: cited from earlier work
T1 construct: in NADH-linked and NADPH-linked sub-mitochondrial (SMP) assays respectively; host or cells: sub-mitochondrial particles (SMPs)

NCI-60 cancer cell lines [1] = experiment: NCI-60 one-dose in vitro assay; assay type: cell-based, human
Description: FIGS. 1, 2, 3, 4, 5, 6 show results from the NCI-60 one-dose in vitro assay at the Developmental Therapeutics Program (DTP), at the National Cancer Institute (NCI, Bethesda, MD, USA). Its protocol is well known to those of the art, and it tests the effect, if any, of a test compound on the growth/survivability of a cancer cell line as compared to the no compound control. […] However, a constant is that this 59 always has representative cell lines from leukemia, melanoma and cancers of the lung, colon, brain, ovary, breast, prostate and kidney. In a one-dose NCI compound test report, NCI report a number for each cell line, which they call “Growth Percent”, which is its growth relative to the no-compound control, and relative to the time zero number of cells. This reported parameter allows detection of both growth inhibition (values between 0 and 100) and lethality (values less than 0). For example, an NCI “Growth Percent” value of 100 means no growth inhibition. Value of 40 means 60% growth inhibition. Value of 0 means no net growth over the course of the experiment. Value of −40 means 60% lethality. Value of −100 means all cells are dead. I don't present NCI one-dose data in this original format. Instead, if the NCI “Growth Percent” value for a cell is positive, it is manipulated: [100 minus this original NCI-60 “Growth Percent” data point], to yield the percentage “Growth Inhibition”. If the original NCI “Growth Percent” value for a cell is negative, it is made positive to be the percentage of original cancer cells (at time zero) killed: “Percentage Killed” {and in these cases, of course, all growth has been inhibited, so percentage “Growth Inhibition” is then specified to be 100% for this cancer cell line}. In my one-dose figures, “Growth Inhibition” (0-100%) is presented on the x-axis and, if applicable, “Percentage Killed” (0-100%) further along on the x-axis. The latter is applicable when there is not just cancer growth inhibition but a reduction in the number of cancer cells from the start time i.e. when the compound is not merely slowing cancer growth, but is actively reducing the number of cancer cells from the starting number. In cases where there is only growth inhibition, only “Growth inhibition” is presented on the x-axis.

NCI-60 cancer cell lines [2] = experiment: NCI-60 five-dose in vitro assay; assay type: cell-based, human; conditions: mean of all 59 cell lines
Description: The compounds of this invention act by a distinctly different mechanism, upon cancer cells, than oligomycin. […] The degree of (dis)similarity can be measured using the COMPARE algorithm, which employs a Pearson correlation coefficient. […] This mechanistic distinction is vital because polyketide F1F0 ATP synthase inhibitors are poisonous to normal cells, which means they fail in cancer xenograft mouse experiments and are without clinical utility.
Results from the NCI-60 five-dose in vitro assay at the Developmental Therapeutics Program (DTP), at the National Cancer Institute (NCI, Bethesda, MD, USA). In this assay, which is well known to those of the art, a compound is tested, in vitro, against 59 different cancer cell lines, sourced from 9 different tissue types, across 5 different concentrations. On the y-axis is the aforementioned “Growth Percentage” parameter used by NCI, which is growth relative to the no-compound control, and relative to the time zero number of cells. This parameter allows detection of both growth inhibition (values between 0 and 100) and lethality (values less than 0). […] Each cancer cell line has a GI50 value and the “mean GI50” of all 59 cell lines can be calculated.

ex vivo rat heart = conditions: 10 μM [11]; cited from earlier work
F1F0-ATP hydrolysis = target: T2, F1F0-ATP hydrolysis (Homo sapiens, UniProt P06576+P25705); conditions: cited from earlier work
T2 construct: BTB06584 potency information (isn't an EC50) is from a whole cell study [13]

mouse cortical neurons = conditions: 100 μM [13]; cited from earlier work
F1F0-ATP synthesis = target: T3, F1F0-ATP synthesis (Homo sapiens, UniProt P06576+P25705); conditions: [13]; cited from earlier work
T3 construct: BTB06584 potency information (isn't an EC50) is from a whole cell study [13]

[3] = tested on: HL-1 cardiac muscle cell line; conditions: 3 μM; HL-1 cells; data from [12]; cited from earlier work
[4] = tested on: xenograft mouse models of cancer; conditions: data in [16]; cited from earlier work
[5] = cited from earlier work
[6] = Formula (I) examples, SMP data from [5], read-out: EC50 F1F0 ATP hydrolase

With N#CN=C(Nc1cccc(Cl)c1Cl)NC(Cn1ccnc1)c1ccc(Cl)cc1Cl (centres unmarked) [2,3-Cl2/CN] as the molecule, how does the EC50 (F1F0 ATP hydrolase; [6]) read?
Its EC50 is 2.49 µM.

Which EC50 (F1F0 ATP hydrolase; [6]) does the source give for N#CN=C(Nc1cccc(Cl)c1)NC(Cn1ccnc1)c1ccc(Cl)cc1Cl (centres unmarked) [3-CL/CN] here?
Its EC50 is 9.17 µM.

With CC(=O)Nc1ccc(S(=O)(=O)N2Cc3ccccc3N(Cc3cnc[nH]3)C(CCc3ccccc3)C2)cc1 (centres unmarked) [4-(AcNH)—Ph/SO2/5-yl] as the molecule, how does the EC50 (F1F0 ATP hydrolase; Formula (II) examples, SMP data from [8], read-out: EC50F1F0ATP hydrolase) read?
The EC50 was 2.98 µM.

With N#Cc1ccc(C(=O)N=C(Nc2ccc(Cl)cc2)NC(Cn2ccnc2)c2ccc(Cl)cc2Cl)cc1 (centres unmarked) [4-Cl/C(═O)4-CN—Ph] as the molecule, how does the EC50 (F1F0 ATP hydrolase; [6]) read?
Its EC50 is 0.28 µM.

With CCC(=O)N=C(Nc1ccc(Cl)cc1)NC(Cn1ccnc1)c1ccc(Cl)cc1Cl (centres unmarked) [4-Cl/C(═O)Et] as the molecule, how does the EC50 (F1F0 ATP hydrolase; [6]) read?
Its EC50 is 2.27 µM.

For N#CN=C(Nc1ccc(Cl)cc1)NC(Cn1ccnc1)c1ccc(Cl)cc1Cl (centres unmarked) [4-Cl/CN], which EC50 (F1F0 ATP hydrolase; [6]) is on record?
The EC50 was 8.8 µM.

Which results are given for N#Cc1cccc(C(=O)/N=C(\Nc2ccc(Cl)cc2)N[C@@H](Cn2ccnc2)c2ccc(Cl)cc2Cl)c1 [6a]?
anti-cancer activity (NCI one-dose assay) (NCI-60 cancer cell lines [1]; 10 μM): exerted anti-cancer activity; inhibits F1F0-ATP hydrolysis (F1F0 ATP hydrolase; stereoisomers of 19a [5-6]): not

For N#Cc1cccc(C(=O)/N=C(\Nc2ccc(Cl)cc2)NC(Cn2ccnc2)c2ccc(Cl)cc2Cl)c1 (centres unmarked) [19a], which “anti-cancer activity (NCI one-dose assay)” value (“anti-cancer activity” for short) (NCI-60 cancer cell lines [1]; 10 μM) is on record?
Its value is “more anti-cancer activity than BMS-199264”.

For CC1(C)Oc2ccc(S(=O)(=O)N3CCCCC3)cc2[C@@H](N(Cc2ncc[nH]2)c2ccc(Cl)cc2)[C@@H]1O.Cl [BMS-199264 hydrochloride], which “anti-cancer activity” value (NCI-60 cancer cell lines [1]; 10 μM) is on record?
Its value is “Anti-cancer activity”.

And the “anti-cancer activity” value (NCI-60 cancer cell lines [1]; 100 μM)?
The value was “Anti-cancer activity”.

What about the GI50 (NCI-60 cancer cell lines [2]) of the same molecule?
The GI50 was 3.9 µM.

Which “anti-cancer activity” value (NCI-60 cancer cell lines [1]; 10 μM) does the source give for CC1(C)Oc2ccc(S(=O)(=O)N3CCCCC3)cc2[C@@H](N(Cc2ncc[nH]2)c2ccc(Cl)cc2)[C@@H]1O [BMS-199264] here?
Its value is “exerts anti-cancer activity”.

What about the “harm to normal cells (ex vivo rat heart)” value (ex vivo rat heart) of the same molecule?
The value was “does not harm ex vivo rat heart; also recorded: doesn't harm normal cells”.

Which “anti-cancer activity” value (NCI-60 cancer cell lines [1]; 10 μM) does the source give for O=C(Oc1cc(S(=O)(=O)c2ccccc2)ccc1[N+](=O)O)c1ccc(Cl)cc1 [BTB06584] here?
Its value is “No anti-cancer activity and none”.

And the “anti-cancer activity” value (NCI-60 cancer cell lines [1]; 100 μM)?
Its value is “exerts anti-cancer activity”.

And the “inhibitory potency for F1F0-ATP hydrolysis” value (F1F0-ATP hydrolysis; 10 μM [13])?
The value was “none”.

And the “concentration required for inhibiting F1F0-ATP hydrolysis” value (F1F0-ATP hydrolysis; whole cell study [13])?
Its value is no less than 100 µM.

What about the “harm to normal cells (mouse cortical neurons)” value (mouse cortical neurons) of the same molecule?
The value was “isn't harmful to normal cells”.

And the “inhibition of F1F0-ATP synthesis” value (F1F0-ATP synthesis)?
Its value is “not inhibiting F1F0-ATP synthesis”.

For CC[C@H]1/C=C/C=C/C[C@@H](C)[C@H](O)[C@@](C)(O)C(=O)[C@@H](C)[C@H](O)[C@@H](C)C(=O)[C@@H](C)[C@H](O)[C@@H](C)/C=C/C(=O)O[C@@H]2[C@H](C)[C@H](CC1)O[C@@]1(O[C@@H](C[C@@H](C)O)[C@@H](C)CC1=O)[C@H]2C [Oligomycin B], which O2 consumption change [3] is on record?
The O2 consumption change was −40%.

Which “efficacy in xenograft mouse models of cancer” value [4] does the source give for CC[C@H](O)C[C@@H]1O[C@]2(CC[C@H]1C)C[C@@H]1OC(=O)/C=C/[C@](C)(O)[C@@H](O)[C@H](C)[C@@H](O)[C@@H](O[C@H]3C[C@@H](OC)[C@@H](O)[C@@H](C)O3)[C@H](O)[C@](C)(O)CCC/C=C\[C@H]3C[C@H](C)CO[C@@]3(O)C[C@H](O2)[C@H]1C [cytovaricin] here?
Its value is “don't work”.

For CC[C@H]1/C=C/C=C/C[C@@H](C)[C@H](O)[C@@](C)(O)C(=O)[C@@H](C)[C@H](O)[C@@H](C)C(=O)[C@@H](C)[C@H](O)[C@@H](C)/C=C/C(=O)O[C@@H]2[C@H](C)[C@H](CC1)O[C@]1(CC[C@H](C)[C@H](C[C@@H](C)O)O1)[C@H]2C [oligomycin], which “inhibition of F1F0 ATP hydrolysis versus F1F0 ATP synthesis” value (F1F0 ATP hydrolase; SMP assays [11]) is on record?
Its value is “inhibits F1F0 ATP hydrolysis less than F1F0 ATP synthesis”.

And the “time within which healthy rats are killed” value ([5]; 1 mg/kg, n=10)?
The value was no more than 48 h.

And the LD33 ([5]; rats)?
The LD33 was 0.5 mg/kg.

Which “efficacy in xenograft mouse models of cancer” value [4] does the source give for CC[C@@H](O)C[C@H]1CCC[C@@]2(C[C@@H]3OC(=O)/C=C/[C@@](C)(O)[C@@H](O)[C@H](C)[C@@H](O)[C@H](O[C@H]4CC[C@H](N(C)C)[C@H](C)O4)[C@@H](O)[C@](C)(O)CCCCC/C=C/[C@@H]4CC(C)(C)O[C@@]4(O)C[C@H](O2)[C@H]3C)O1 [ossamycin] here?
The value was “don't work”.
